Consider 1 molecule from patent publication US9040509B2, “Method of treating human skin and a skin care composition for use in such a method” (Pantarhei Bioscience B.V., priority 2002, dated 2015).

pKi: −log10 of the molar value. Read-outs that look alike come from different tables or passages of the source.

The target of one data set is human ERα (Homo sapiens (Human), UniProt P03372). The data set can be described thus: Competitive steroid binding assay, recombinant human ERα, [3H]E2 as labeled ligand. The note with it: Cheng and Prusoff from measured IC50.
Chain of human ERα (P03372 whole entry): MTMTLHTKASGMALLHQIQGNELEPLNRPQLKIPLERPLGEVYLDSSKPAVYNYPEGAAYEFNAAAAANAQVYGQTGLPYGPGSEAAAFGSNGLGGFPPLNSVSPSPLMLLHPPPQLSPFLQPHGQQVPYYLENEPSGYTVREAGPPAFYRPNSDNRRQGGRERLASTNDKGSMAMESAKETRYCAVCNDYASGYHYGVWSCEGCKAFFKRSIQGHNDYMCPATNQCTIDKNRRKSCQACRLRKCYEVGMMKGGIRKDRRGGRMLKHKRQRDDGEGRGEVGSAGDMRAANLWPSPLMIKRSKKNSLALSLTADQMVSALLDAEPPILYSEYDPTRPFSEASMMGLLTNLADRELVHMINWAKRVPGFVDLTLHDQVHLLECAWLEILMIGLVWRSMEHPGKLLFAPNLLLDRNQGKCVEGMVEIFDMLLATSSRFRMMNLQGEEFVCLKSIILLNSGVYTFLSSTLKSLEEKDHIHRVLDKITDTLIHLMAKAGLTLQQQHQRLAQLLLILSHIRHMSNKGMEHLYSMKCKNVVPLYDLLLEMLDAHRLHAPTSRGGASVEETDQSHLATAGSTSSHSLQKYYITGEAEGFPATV
The next data set addresses human ERβ (Homo sapiens (Human), UniProt Q92731). The data set can be described thus: Competitive steroid binding assay, recombinant human ERβ, [3H]E2 as labeled ligand. The note with it: Cheng and Prusoff from measured IC50.
Data set [1] is described as follows: Elimination half-life after single subcutaneous administration in rats. The note with it: female, Sprague Dawley, rat; single sc dose 0.05, 0.5 or 5 mg/kg in arachidis oil; plasma. The format is in vivo. The protocol:
To determine the in vivo stability of estetrol (E4) its elimination half-life in female Sprague Dawley rats was determined after a single subcutaneous administration (sc) at several dose levels.
Female Sprague Dawley rats were equipped with a permanent silatic heart catheter, as described by Kuipers et al. (1985, Gastroenterology, 88, 403-411). Rats were allowed to recover from surgery for 5 days and were than administered 0.05, 0.5, or 5 mg/kg E4 in 0.5 ml arachidis oil. E4 was injected in the neck area using a 1 ml syringe and 20 g needle. Blood samples were subsequently collected via the heart catheter in heparinized tubes at 0.5, 1, 2, 4, 8 and 24 hours. Erythrocytes were removed by centrifugation at 5000×g for 10 minutes at 4° C. and blood plasma was stored at −20° C. […] With each sample batch, a calibration curve with 6 calibrators was recorded. The calibration curve was calculated using linear regression (correlation coefficient>0.98), which permitted quantitation of plasma concentrations. […]
Plasma E4 concentration data were analysed with “WinNonLin, edition 3.1” and involved pharmacokinetic parameters for Cmax, AUC0-24 and half-life.

For the next data set, the system named is uterine vasodilation. The note with it: intravenously administered; cited from earlier work.
Data set [2] deals with human breast cancer cells (MCF-7). The note with it: MCF-7, long term tissue culture; cited from earlier work.
The next data set relates to immature rat uterus. The note with it: subcutaneously administered, Holinka et al., cited from earlier work.
Another data set deals with uterus. The note with it: continuous administration from a subcutaneous depot; Martucci et al., 1977; cited from earlier work.
The test system of data set [3] is estrogen receptor in the human endometrium. The note with it: Tseng et al., cited from earlier work.
The test system of data set [4] is rat uterine cytosol estrogen receptor. The note with it: cited from earlier work.
Data set [5] concerns rat uterine nuclear estrogen receptor. The note with it: cited from earlier work.
The conditions of data set [6]: intravenous, two adult women, cited from earlier work.

Chain of human ERβ (Q92731 whole entry): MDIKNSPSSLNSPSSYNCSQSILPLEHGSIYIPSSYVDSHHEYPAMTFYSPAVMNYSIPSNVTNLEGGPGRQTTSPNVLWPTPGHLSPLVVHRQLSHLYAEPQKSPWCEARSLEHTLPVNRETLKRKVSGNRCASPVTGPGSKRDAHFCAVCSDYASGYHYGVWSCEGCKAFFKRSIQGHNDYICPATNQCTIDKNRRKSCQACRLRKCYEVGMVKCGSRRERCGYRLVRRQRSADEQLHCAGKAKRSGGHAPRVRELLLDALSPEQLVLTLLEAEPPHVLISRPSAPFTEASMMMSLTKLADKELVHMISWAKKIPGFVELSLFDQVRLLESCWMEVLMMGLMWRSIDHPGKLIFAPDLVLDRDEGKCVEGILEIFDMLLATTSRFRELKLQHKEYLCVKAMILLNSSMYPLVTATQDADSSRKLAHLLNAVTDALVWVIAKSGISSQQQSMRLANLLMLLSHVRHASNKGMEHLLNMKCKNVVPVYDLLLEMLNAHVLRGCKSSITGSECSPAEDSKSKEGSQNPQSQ

In the case of `C[C@]12CC[C@@H]3c4ccc(O)cc4CC[C@H]3[C@@H]1[C@@H](O)[C@@H](O)[C@@H]2O` [E4, 1,3,5 (10)-estratrien-3,15α,16α,17β-tetrol], the pKi at human ERα was 8.31; at human ERβ, 7.72. The molecule also returned a half-life in data set [1] of 120 to 180 min. The “potency in uterine vasodilation, times less potent than estriol and 17β-estradiol” value with uterine vasodilation is 15 to 30 times. For the same molecule, the “agonistic potency in in vitro cell proliferation relative to 17β-estradiol” value in data set [2] was 2%. Besides, the uterotrophic activity entry with immature rat uterus (1979), in the data set on immature rat uterus (1980) and in the data set with uterus was “very weak uterotrophic activity” each time. In addition, the “relative binding constant compared to 17β-estradiol (100%)” value in data set [3] (1976) was 6.25%. Also, the “relative binding to estrogen receptors, of 17β-estradiol” value in data set [3] (1978) is given as 1.5%. For the same molecule, the figures for the “relative binding affinity, of 17β-estradiol (100%)” value in data set [4] and in [5] were 0.5% and 0.3%, respectively. The excretion entry in data set [6] (urine) was “rapidly and completely excreted in urine as the glucosiduronate”. The metabolism result in data set [6] is listed as “virtually no metabolism except for conjugation took place”.
